According to US20170138969A1, “System And Method For Measuring Permeability Of Drugs/Toxic/Chemical Compounds” (Indian Institute Of Technology Madras, priority 2014, published 2017):

Assay: Membrane integrity test in lipid monolayer (LB) PAMPA system
Type: in vitro ADME
Method: FIG. 3-4 illustrates graphs 300-400 illustrating the membrane integrity test, in accordance with the disclosed embodiments. The membrane integrity test can be performed according to the standard protocol. An 80 μl aqueous solution containing Lucifer yellow (LY) and Brilliant Cresyl Blue (BCB) in the ratio 1:9 is added into the donor well. The PAMPA system can be assembled and incubated for 5 hours at 25° C. The acceptor plate and donor well are separated and concentration of LY and BCB was analyzed by measuring; Fluorescence: Excitation wavelength @428 mn; Emission wavelength @525 nm; Absorbance; at 610 nm for BCB.
FIG. 3 illustrates the graph 300 showing the permeation of BCB as 0.045; Absorbance units after 5 hours of incubation indicating the presence of integral membrane. Similarly, the graph 400 illustrates the rejection of Lucifer Yellow after 5 hours of incubation indicating the presence of integral membrane. The rejection of Lucifer yellow indicates the presence of an integral membrane.

permeation/rejection of Lucifer Yellow (fluorescence, excitation 428 / emission 525 nm) (LY:BCB 1:9 aqueous solution, 80 μl in donor well, after 5 hours of incubation at 25° C.)	permeation of BCB (absorbance at 610 nm, acceptor) (PAMPA)	Substance
rejection	–	Lucifer yellow
–	0.045 Absorbance units	Brilliant Cresyl Blue [BCB]
